# Key:
# AAD-12 (v2) [1] = molecular target: T1, AAD-12 (v2) (Delftia acidovorans, UniProt P83309); test: Colorimetric phenol detection assay of AAD-12 activity; type: biochemical; details: for activity of AAD-12 (v2) on substrate (absorbance at 510 nm, FIG. 3): 4.4 μg AAD-12 (v2), 5 minutes
# T1 construct: made in house; host or cells: Pseudomonas fluorescens strain MB324 (construct pDAB739)
# Procedure: Enzyme activity was measured by colorimetric detection of the product phenol using a protocol modified from that of Fukumori and Hausinger (1993) (J. Biol. Chem. 268: 24311-24317) to enable deployment in a 96-well microplate format. The colorimetric assay has been described for use in measuring the activity of dioxygenases cleaving 2,4-D and dichlorprop to release the product 2,4-dichlorophenol. The color yield from several phenols was compared to that of 2,4-dichlorophenol using the detection method previously described to ascertain which phenol products could be readily detected. […] Pyridinols derived from fluroxypyr and triclopyr produced no significant color. The color yield of 2,4-dichlorophenol was linear and proportional to the concentration of phenol in the assay up to ˜500 μM.
# Assays were initiated by addition of the aryloxyalkanoate substrate, enzyme or α-ketoglutarate at time zero. After 5 minutes of incubation at 25° C., the reaction was terminated by addition of 30 μl of a 1:1:1 mix of 50 mM Na EDTA; pH 10 buffer (3.09 g boric acid+3.73 g KCl+44 ml 1 N KOH) and 0.2% 4-aminoantipyrine. Then 10 μl 0.8% potassium ferricyanide was added and after 5 or 10 min, the absorbance at 510 nm was recorded in a spectrophotometric microplate reader. Blanks contained all reagents except for enzyme to account for the occasional slight contamination of some of the substrates by small amounts of phenols.
# The results are shown in FIG. 3, which illustrates activity of AAD-12 (v2) on 2,4-D and enantiomers of dichlorprop. 4.4 μg AAD-12 (v2) was incubated with 0.5 mM substrate (1 mM for (R,S)-dichlorprop) and the reaction initiated by addition of α-ketoglutarate. After 5 minutes, the reaction was quenched, and the absorbance at 510 nm determined after addition of colorimetric detection reagents. The background value without enzyme was subtracted.
# [2] = tested on: Pat/Cry1f-Control Arabidopsis; test: Foliar-applied auxinic herbicides on transformed control Arabidopsis; type: in vivo, Arabidopsis thaliana; details: for Ave % Injury 14DAT: Inactive DCP metabolite
# Procedure: (§1) The ability of AAD-12 (v1) to provide resistance to other aryloxyalkanoate auxin herbicides in transgenic Arabidopsis was determined by foliar application of various substrates. T2 generation Arabidopsis seed was stratified, and sown into selection trays much like that of Arabidopsis (Example 6.4). A transformed-control line containing PAT and the insect resistance gene Cry1F was planted in a similar manner. Seedlings were transferred to individual 3-inch pots in the greenhouse. All plants were sprayed with the use of a track sprayer set at 187 L/ha. The plants were sprayed with a range of pyridyloxyacetate herbicides: 280-2240 g ae/ha triclopyr (Garlon 3A, Dow AgroSciences) and 280-2240 g ae/ha fluroxypyr (Starane, Dow AgroSciences); and the 2,4-D metabolite resulting from AAD-12 activity, 2,4-dichlorophenol (DCP, Sigma) (at a molar equivalent to 280-2240 g ac/ha of 2,4-D, technical grade DCP was used). All applications were formulated in water. Each treatment was replicated 3-4 times. Plants were evaluated at 3 and 14 days after treatment.
# [3] = tested on: Segregating T2 AAD-12 (v1) plants (pDAB724.01.1.20); test: Foliar-applied auxinic herbicides on T2 Arabidopsis; type: in vivo, Arabidopsis thaliana; details: Inactive DCP metabolite
# Procedure: as §1
# AAD-12 (v2) [4] = molecular target: T1, AAD-12 (v2); test: Chloropyridinol detection assay (absorbance at 325 nm); type: biochemical; details: 6.8 μg AAD-12 (v2), 1 mM substrate
# Description: AAD-12 action on potential substrates such as the herbicide triclopyr containing a substituted pyridine (rather than benzene rings) will release a pyridinol on cleavage of the aryloxyalkanoate bond. Pyridinols were not detected using the aminoantipyrine/ferricyanide phenol detection described in the preceding section. […] This was used to create a continuous microplate-based spectrophotometric assay.
# All five pyridyloxyalkanoates were cleaved to release pyridinols by AAD-12 (v2). The rates for the oxypropionate substrates 116844 and 91767 were somewhat faster than those for the corresponding acetates (triclopyr and 93833 respectively) indicating a preference of AAD-12 (v2) for oxypropionate over oxyacetate side chains.
# [5] = 280 g ae/ha (molar equivalent of 2,4-D) foliar
# [6] = 560 g ae/ha (molar equivalent of 2,4-D) foliar
# [7] = 1120 g ae/ha (molar equivalent of 2,4-D) foliar
# [8] = 2240 g ae/ha (molar equivalent of 2,4-D) foliar
# T1 sequence (P83309 whole entry, looked up, natural form): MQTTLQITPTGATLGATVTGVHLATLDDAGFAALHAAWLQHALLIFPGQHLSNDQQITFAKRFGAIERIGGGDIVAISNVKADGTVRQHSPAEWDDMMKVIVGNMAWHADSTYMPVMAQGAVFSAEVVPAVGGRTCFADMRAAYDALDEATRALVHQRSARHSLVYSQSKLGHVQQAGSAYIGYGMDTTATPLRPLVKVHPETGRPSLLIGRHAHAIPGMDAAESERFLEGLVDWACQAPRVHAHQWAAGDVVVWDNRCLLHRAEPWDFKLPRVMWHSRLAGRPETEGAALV
smiles,measurement,setting,value
"CC(Oc1ccc(Cl)cc1Cl)C(=O)O (racemic) [(R,S)-dichlorprop]","activity of AAD-12 (v2) on substrate (absorbance at 510 nm, FIG. 3)",AAD-12 (v2) [1]; 1 mM substrate,excellent activity
same,Substrate inhibition at 2 mM,AAD-12 (v2) [1]; Phenol detection,55%
same,"kcat, min^−1 (±SE)",AAD-12 (v2) [1]; Phenol detection,63.4 (±0.5) min^−1
same,Km,"AAD-12 (v2) [1]; Phenol detection, for (R,S)-dichlorprop calculated assuming 50% of the racemic mixture was available as a substrate, read-out: Km, μM (±SE)",122 µM
"Oc1ccc(Cl)cc1Cl [2,4-DCP, 2,4-dichlorophenol]",Ave % Injury 14DAT,[2]; [5],0%
same,Ave % Injury 14DAT,[2]; [6],0%
same,Ave % Injury 14DAT,[2]; [7],0%
same,Ave % Injury 14DAT,[2]; [8],0%
same,effect on plants after foliar application,"[2]; molar equivalent to 280-2240 g ae/ha of 2,4-D",no effect
same,Ave % Injury 14DAT,[3]; [5],0%
same,Ave % Injury 14DAT,[3]; [6],0%
same,Ave % Injury 14DAT,[3]; [7],0%
same,Ave % Injury 14DAT,[3]; [8],0%
C[C@H](Oc1ccc(Cl)cc1Cl)C(=O)O [(S)-dichlorprop],"activity of AAD-12 (v2) on substrate (absorbance at 510 nm, FIG. 3)",AAD-12 (v2) [1]; 0.5 mM substrate,excellent activity
CC(Oc1ncc(Cl)cc1Cl)C(=O)O (stereo not shown) [compound 66357],Rate relative to triclopyr,AAD-12 (v2) [4],2.3
same,Rate (mAU/min),"AAD-12 (v2) [4]; 325 nm, background rate 1.4 mAU/min subtracted",225 mAU/min

# Reference: patent publication US11371055B2, “Herbicide resistance genes” (CORTEVA AGRISCIENCE LLC, priority 2005, dated 2022)
